“And” between values parts separate entries of the source, which are not always exact repeats. Equal entries are not always repeated.
Legend:
[1] = Biodistribution in mice at 24 hours, gamma well counting; assay type: in vivo, Balb-C mice
transplanted sarcoma = test: Tumor imaging, mice with transplanted sarcoma, gamma well counting; assay type: in vivo; set-up: Fat activity, gamma well counting / Muscle activity, gamma well counting: unit not given here
Description: All images for the in vivo studies were obtained on a GE 500 maxicamera using a LEAP collimator with a 20% window about the 140 keV energy peak of technetium, and a medium energy collimator with a 20% window about the 174 keV and 247 keV energy peaks of Indium. A 256×256 matrix with a dedicated pinnacle computer system was used to collect and analyze the data.

[2] = Gastrointestinal absorption after oral administration, modified Schillings test; assay type: in vivo, mice; set-up: Kidney activity, gamma well counting / Liver activity, gamma well counting / Pancreas activity, gamma well counting / Heart activity, gamma well counting / Spleen activity, gamma well counting: unit not given here
Protocol: B. Gastrointestinal Absorption: Methylcobalamin-b-(4-aminobutyl)-DTPA and DTPA alone were labeled as described above, with the exception that the 3 mCi Indium/300 μg/100 μl normal saline solutions were not diluted. […] The mice were sacrificed at 24 hrs, dissected, and studied as described above.
A modified Schillings test was performed on two mice. Specifically, each mouse received via subcutaneous and intraperitoneal administration, a 1000 μg loading dose of non-labeled methylcobalamin-b-(4-aminobutyl)amide-DTPA analogue. At 24 hrs, the mice were fed 2-3 drops of Indium-labeled methylcobalamin-b-(4-aminobutyl)amide-DTPA-complex. Urine and feces were collected from the three groups of mice after oral administration. The mice were sacrificed at 24 hours after ingestion of tracer and images and biodistribution data were obtained at that time.

[3] = 500 μCi intraperitoneal, 24 hours, mice 1-6
[4] = 500 μCi subcutaneously, mice 7-12
[5] = 500 μCi intraperitoneal, 24 hours, tumor mice 19-24
[6] = approximately 100 μCi tailvein injection, tumor mice 25-30
[7] = approximately 30 μCi orally, 24 hrs, mice 13-18
[8] = approximately 30 μCi orally, 24 hrs, mice 13-18, BKG = background

Compound	Fat activity, gamma well counting [1, 3]	Heart activity, gamma well counting [1, 3]	Liver activity, gamma well counting [1, 3]	Lung activity, gamma well counting [1, 3]	Pancreas activity, gamma well counting [1, 3]	Heart activity, gamma well counting [1, 4]	Kidney activity, gamma well counting [1, 4]	Liver activity, gamma well counting [1, 4]	Lung activity, gamma well counting [1, 4]	Pancreas activity, gamma well counting [1, 4]	Heart activity, gamma well counting (transplanted sarcoma; [5])	Kidney activity, gamma well counting (transplanted sarcoma; [5])	Pancreas activity, gamma well counting (transplanted sarcoma; [5])	Tumor activity, gamma well counting (transplanted sarcoma; [5])	Heart activity, gamma well counting (transplanted sarcoma; [6])	Lung activity, gamma well counting (transplanted sarcoma; [6])	Kidney activity, gamma well counting [2, 7]	Liver activity, gamma well counting [2, 7]	Pancreas activity, gamma well counting [2, 7]	Fat activity, gamma well counting [2, 8]	other results
O=C([O-])CN(CCN(CC(=O)[O-])CC(=O)[O-])CCN(CC(=O)[O-])CC(=O)[O-].[111In+3].[H+].[H+] [DTPA-^111In]	12.6 and 19.5 and 18.8	10.3 and 6.9 and 12.5	56.9 and 41.5 and 66.1	6.2 and 6.0 and 10.5	13.4 and 13.0 and 14.1	5.6 and 5.0 and 4.8	119.4 and 117.3 and 110.1	24.0 and 25.5 and 23.2	5.4 and 5.3 and 5.0	6.0 and 6.7 and 5.9	5.0 and 8.0 and 9.7	116.5 and 180.7 and 231.2	7.1 and 11.3 and 13.9	52.8 and 69.3 and 73.1	0.94 and 0.61 and 0.85	1.7 and 0.87 and 0.93	0.64 and 0.54 and 0.59	0.28 and 0.21 and 0.30	0.93 and 0.96 and 0.61	<BKG	Muscle activity, gamma well counting [1, 3]: 5.4 and 5.6 and 5.0; Spleen activity, gamma well counting [1, 4]: 19.5 and 19.0 and 18.1; activity per organ or tissue sample, times less when compared to the methyl and adenosylcobalamin analogs ([1]; mouse, in vivo): 5-12 times; Fat activity, gamma well counting (transplanted sarcoma; [5]): 13.7 and 17.9 and 19.2; Muscle activity, gamma well counting (transplanted sarcoma; [5]): 7.2 and 6.4 and 6.8; Fat activity, gamma well counting (transplanted sarcoma; [6]): 0.93 and 0.75 and 0.79; Kidney activity, gamma well counting (transplanted sarcoma; [6]): 14.0 and 9.9 and 10.2; Liver activity, gamma well counting (transplanted sarcoma; [6]): 1.6 and 1.3 and 1.4; Spleen activity, gamma well counting (transplanted sarcoma; [6]): 1.9 and 1.4 and 1.6; Tumor activity, gamma well counting (transplanted sarcoma; [6]): 5.0 and 2.8 and 3.4; concentration within the transplanted tumors, times less than that of adenosylcobalamin-DTPA-^111In (transplanted sarcoma; mouse, in vivo): 10-20 times; Spleen activity, gamma well counting [2, 7]: 0.62 and 0.67 and 0.48; Heart activity, gamma well counting [2, 8]: <BKG; Lung activity, gamma well counting [2, 8]: <BKG; Muscle activity, gamma well counting [2, 8]: <BKG; activity in the heart, lungs, muscle, or fat tissue samples ([2]; oral): No activity was detected; radioactivity in urine and stool ([2]; oral): detected in urine and stool by two hours; absorption from the gastrointestinal tract ([2]; oral administration, mice): also absorbed from the gastrointestinal tract, but to a lesser degree
CC1=C2N=C(C=C3N=C(C(C)=C4[N-]C(C(CC(N)=O)C4(C)CCC(=O)NCC(C)OP(=O)([O-])OC4C(CO)OC(n5cnc6cc(C)c(C)cc65)C4O)C4(C)N=C1C(CCC(=O)NCCCCNC(=O)CN(CCN(CCN(CC(=O)[O-])CC(=O)[O-])CC(=O)[O-])CC(=O)[O-])C4(C)CC(N)=O)C(CCC(N)=O)C3(C)C)C(CCC(N)=O)C2(C)CC(N)=O.[111In+3].[CH2-]C1OC(n2cnc3c(N)ncnc32)C(O)C1O.[Co+3] (stereo not drawn) [adenosylcobalamin-b-(4-aminobutyl)-amide-DTPA-^111In]	101.4 and 147.3 and 102.8	134.7 and 189.4 and 171.2	943.3 and 823.4 and 768.6	130.9 and 180.1 and 113.1	304.2 and 319.9 and 310.3	35.0 and 29.8 and 31.3	621.4 and 700.5 and 601.7	126.4 and 111.7 and 115.8	38.4 and 51.2 and 40.6	40.0 and 39.3 and 41.2	165.0 and 134.8 and 157.8	3886.9 and 3115.6 and 3592.8	445.0 and 242.7 and 439.0	954.7 and 1426.0 and 1183.1	–	–	–	–	–	–	Kidney activity, gamma well counting [1, 3]: 3717.5 and 3299.5 and 3462.7; Spleen activity, gamma well counting [1, 3]: 433.1 and 405.3 and 366.8; Liver activity, gamma well counting (transplanted sarcoma; [5]): 691.0 and 464.8 and 675.0; Lung activity, gamma well counting (transplanted sarcoma; [5]): 318.8 and 230.0 and 335.2; Spleen activity, gamma well counting (transplanted sarcoma; [5]): 576.3 and 309.5 and 478.3; tumor activity relative to heart, lungs, fat, and muscle (transplanted sarcoma; IP and IV routes, 24 hours): 4-12 times; tumor activity relative to liver, spleen, and pancreas (transplanted sarcoma; IP and IV routes, 24 hours): two to four times greater activity; uptake within the transplanted sarcoma (transplanted sarcoma; at 24 hours, visually and by gamma well counting): significant amount
CC1=C2N=C(C=C3N=C(C(C)=C4[N-]C(C(CC(N)=O)C4(C)CCC(=O)NCC(C)OP(=O)([O-])OC4C(CO)OC(n5cnc6cc(C)c(C)cc65)C4O)C4(C)N=C1C(CCC(=O)NCCCCNC(=O)CN(CCN(CCN(CC(=O)[O-])CC(=O)[O-])CC(=O)[O-])CC(=O)[O-])C4(C)CC(N)=O)C(CCC(N)=O)C3(C)C)C(CCC(N)=O)C2(C)CC(N)=O.[111In+3].[CH3-].[Co+3] (stereo not drawn) [methylcobalamin-b-(4-aminobutyl)-amide-DTPA-^111In]	–	–	–	–	–	–	–	–	–	–	–	–	–	–	21.7 and 11.4 and 16.9	34.4 and 19.9 and 21.3	4.3 and 4.1 and 3.1	0.82 and 0.80 and 0.73	0.75 and 0.76 and 1.1	<BKG	Muscle activity, gamma well counting (transplanted sarcoma; [6]): 23.5 and 15.5 and 14.5; Pancreas activity, gamma well counting (transplanted sarcoma; [6]): 38.4 and 21.3 and 30.3; Heart activity, gamma well counting [2, 8]: 0.54 and 0.50; Muscle activity, gamma well counting [2, 8]: <BKG; activity in the urine by gamma well counting ([2]; oral, mice not flushed with non-labeled methylcobalamin-b-(4-aminobutyl)amide-DTPA): no discernable activity was detected; radioactivity in urine ([2]; oral, mice that underwent the modified Schillings test (flushed)): detectable radioactivity within their urine at one hour
